# Data: patent publication US20080031982A1 (Metaproteomics, LLC, priority 2006, published 2008)
# How the values were obtained:
# Assay in all cases: KinaseProfiler Assay
# CDK1/cyclinB = CDK1/cyclinB (Homo sapiens, UniProt P06493)
# Rsk1 = system: Rsk1
# JAK3 = target: T1, JAK3 (Homo sapiens, UniProt P52333)
# T1 sequence (P52333 1-1124): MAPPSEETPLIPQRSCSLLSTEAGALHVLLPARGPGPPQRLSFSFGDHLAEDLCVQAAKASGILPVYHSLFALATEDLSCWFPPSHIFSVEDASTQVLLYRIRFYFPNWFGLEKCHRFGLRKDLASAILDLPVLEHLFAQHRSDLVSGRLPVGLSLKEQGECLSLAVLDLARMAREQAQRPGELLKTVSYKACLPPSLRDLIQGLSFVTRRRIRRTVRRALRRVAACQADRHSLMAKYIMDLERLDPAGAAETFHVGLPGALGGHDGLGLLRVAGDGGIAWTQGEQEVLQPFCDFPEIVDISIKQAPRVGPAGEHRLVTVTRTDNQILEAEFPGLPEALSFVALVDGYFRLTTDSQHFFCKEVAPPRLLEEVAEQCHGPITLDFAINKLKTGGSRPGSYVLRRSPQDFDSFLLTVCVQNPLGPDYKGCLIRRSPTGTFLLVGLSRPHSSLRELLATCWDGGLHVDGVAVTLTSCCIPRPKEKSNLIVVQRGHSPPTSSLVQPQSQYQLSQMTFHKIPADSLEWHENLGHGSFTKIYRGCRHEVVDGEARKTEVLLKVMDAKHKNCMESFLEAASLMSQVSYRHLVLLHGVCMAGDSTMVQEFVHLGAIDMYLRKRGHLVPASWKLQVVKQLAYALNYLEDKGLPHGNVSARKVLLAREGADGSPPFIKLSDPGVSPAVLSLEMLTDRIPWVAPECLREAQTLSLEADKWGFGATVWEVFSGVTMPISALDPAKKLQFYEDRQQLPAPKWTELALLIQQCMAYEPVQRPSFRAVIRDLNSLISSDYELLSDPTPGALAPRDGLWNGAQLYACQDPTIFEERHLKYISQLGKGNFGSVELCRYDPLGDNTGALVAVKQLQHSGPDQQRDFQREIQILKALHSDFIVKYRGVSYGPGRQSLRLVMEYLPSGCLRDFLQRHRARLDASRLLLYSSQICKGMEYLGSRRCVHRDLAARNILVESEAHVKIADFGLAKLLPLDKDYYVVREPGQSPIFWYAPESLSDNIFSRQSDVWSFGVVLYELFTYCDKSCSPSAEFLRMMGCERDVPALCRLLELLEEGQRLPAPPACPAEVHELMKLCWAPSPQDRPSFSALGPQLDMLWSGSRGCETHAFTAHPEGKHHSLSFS
# CK1γ3 = CK1γ3 (Homo sapiens, UniProt Q9Y6M4)
# CDK5/p35 = CDK5/p35 (Homo sapiens, UniProt Q00535)
# EphA8 = target: T2, EphA8 (Homo sapiens, UniProt P29322)
# T2 sequence (P29322 28-1005): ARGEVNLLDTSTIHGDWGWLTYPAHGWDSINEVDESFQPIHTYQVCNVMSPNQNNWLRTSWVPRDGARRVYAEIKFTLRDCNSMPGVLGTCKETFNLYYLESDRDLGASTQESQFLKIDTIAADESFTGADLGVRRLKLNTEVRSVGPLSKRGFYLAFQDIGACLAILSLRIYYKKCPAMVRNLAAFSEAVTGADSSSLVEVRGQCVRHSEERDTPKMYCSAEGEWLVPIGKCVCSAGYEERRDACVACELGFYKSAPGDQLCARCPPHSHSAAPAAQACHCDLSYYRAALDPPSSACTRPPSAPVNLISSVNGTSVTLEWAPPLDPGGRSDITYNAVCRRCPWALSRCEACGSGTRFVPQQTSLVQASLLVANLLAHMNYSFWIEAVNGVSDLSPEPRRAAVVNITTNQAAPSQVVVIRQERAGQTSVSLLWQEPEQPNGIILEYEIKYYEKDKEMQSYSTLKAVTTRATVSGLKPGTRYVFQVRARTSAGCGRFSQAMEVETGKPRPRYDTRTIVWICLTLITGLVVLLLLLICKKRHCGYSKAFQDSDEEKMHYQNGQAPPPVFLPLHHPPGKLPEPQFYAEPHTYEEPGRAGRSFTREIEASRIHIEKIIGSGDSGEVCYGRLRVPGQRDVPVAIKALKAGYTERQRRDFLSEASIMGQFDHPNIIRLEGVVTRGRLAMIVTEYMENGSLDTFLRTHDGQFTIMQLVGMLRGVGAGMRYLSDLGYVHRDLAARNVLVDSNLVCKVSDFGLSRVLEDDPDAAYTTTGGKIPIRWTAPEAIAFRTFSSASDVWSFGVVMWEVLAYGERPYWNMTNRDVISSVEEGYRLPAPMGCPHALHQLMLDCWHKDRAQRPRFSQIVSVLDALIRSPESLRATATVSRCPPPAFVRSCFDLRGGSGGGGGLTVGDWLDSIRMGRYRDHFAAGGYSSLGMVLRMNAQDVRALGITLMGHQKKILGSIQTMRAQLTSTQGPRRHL
# cKit(D816H) = cKit(D816H) (Homo sapiens, UniProt P10721, D816H)
# Pim-2 = Pim-2 (Homo sapiens, UniProt Q9P1W9)
# MAPKAP-K2 = MAPKAP-K2 (Homo sapiens, UniProt P49137)
# Sequence of MAPKAP-K2 (P49137 whole entry): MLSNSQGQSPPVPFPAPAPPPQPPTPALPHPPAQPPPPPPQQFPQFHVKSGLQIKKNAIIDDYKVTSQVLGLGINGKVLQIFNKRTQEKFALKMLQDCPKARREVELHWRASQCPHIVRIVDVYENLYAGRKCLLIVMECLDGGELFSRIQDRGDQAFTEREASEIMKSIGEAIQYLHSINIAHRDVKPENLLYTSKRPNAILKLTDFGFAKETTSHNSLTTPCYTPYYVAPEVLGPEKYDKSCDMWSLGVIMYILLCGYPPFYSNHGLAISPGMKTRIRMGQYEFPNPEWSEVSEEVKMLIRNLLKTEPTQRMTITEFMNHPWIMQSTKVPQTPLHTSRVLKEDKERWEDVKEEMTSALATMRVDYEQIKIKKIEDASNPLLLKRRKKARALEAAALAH
# Sequence of Pim-2 (Q9P1W9 whole entry): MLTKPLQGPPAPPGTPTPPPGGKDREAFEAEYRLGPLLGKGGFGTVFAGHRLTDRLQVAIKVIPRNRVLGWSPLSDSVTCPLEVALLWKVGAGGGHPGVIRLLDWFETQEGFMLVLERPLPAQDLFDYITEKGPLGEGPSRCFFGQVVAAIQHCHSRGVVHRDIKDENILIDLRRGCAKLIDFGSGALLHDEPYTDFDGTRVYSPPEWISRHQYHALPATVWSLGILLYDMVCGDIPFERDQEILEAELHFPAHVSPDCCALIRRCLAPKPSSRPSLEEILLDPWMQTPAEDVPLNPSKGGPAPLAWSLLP
# Sequence of cKit(D816H) (P10721 26-976 D816H): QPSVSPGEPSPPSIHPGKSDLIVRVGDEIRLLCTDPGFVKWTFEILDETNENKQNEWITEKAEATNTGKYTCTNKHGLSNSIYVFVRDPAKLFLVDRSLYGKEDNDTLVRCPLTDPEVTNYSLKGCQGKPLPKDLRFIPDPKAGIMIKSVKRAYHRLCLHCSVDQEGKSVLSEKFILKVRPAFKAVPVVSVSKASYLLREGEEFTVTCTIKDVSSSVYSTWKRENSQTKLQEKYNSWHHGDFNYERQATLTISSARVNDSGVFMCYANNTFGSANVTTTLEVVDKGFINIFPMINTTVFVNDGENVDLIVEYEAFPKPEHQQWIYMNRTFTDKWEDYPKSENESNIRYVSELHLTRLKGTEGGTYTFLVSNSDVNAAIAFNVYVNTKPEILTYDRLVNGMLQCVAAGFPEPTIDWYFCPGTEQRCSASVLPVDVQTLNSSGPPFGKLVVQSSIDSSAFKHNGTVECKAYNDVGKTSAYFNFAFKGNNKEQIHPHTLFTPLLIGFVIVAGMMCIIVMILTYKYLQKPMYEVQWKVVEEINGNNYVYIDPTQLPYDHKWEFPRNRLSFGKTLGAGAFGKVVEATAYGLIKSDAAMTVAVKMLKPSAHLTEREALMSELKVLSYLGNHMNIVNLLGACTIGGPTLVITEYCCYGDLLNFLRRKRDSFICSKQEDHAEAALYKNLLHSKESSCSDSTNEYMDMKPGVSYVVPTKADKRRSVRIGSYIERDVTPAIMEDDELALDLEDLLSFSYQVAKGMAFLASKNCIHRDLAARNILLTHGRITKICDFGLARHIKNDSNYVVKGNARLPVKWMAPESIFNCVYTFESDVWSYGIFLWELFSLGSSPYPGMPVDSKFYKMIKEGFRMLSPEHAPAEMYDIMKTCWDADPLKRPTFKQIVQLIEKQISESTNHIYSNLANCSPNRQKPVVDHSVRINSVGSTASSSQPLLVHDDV
# Sequence of CK1γ3 (Q9Y6M4 whole entry): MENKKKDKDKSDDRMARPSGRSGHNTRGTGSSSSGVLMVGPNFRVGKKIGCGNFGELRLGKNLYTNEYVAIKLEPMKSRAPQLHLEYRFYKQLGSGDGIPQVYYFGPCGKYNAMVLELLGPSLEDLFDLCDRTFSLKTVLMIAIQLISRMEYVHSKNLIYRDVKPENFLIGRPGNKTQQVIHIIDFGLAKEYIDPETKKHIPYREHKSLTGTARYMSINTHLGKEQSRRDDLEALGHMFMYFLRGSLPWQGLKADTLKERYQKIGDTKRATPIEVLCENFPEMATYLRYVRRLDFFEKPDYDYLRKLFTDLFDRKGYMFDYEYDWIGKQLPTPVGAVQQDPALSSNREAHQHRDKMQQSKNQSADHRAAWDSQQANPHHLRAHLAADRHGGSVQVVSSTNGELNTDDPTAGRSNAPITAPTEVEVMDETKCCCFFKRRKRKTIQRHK
# Sequence of CDK5/p35 (Q00535 whole entry): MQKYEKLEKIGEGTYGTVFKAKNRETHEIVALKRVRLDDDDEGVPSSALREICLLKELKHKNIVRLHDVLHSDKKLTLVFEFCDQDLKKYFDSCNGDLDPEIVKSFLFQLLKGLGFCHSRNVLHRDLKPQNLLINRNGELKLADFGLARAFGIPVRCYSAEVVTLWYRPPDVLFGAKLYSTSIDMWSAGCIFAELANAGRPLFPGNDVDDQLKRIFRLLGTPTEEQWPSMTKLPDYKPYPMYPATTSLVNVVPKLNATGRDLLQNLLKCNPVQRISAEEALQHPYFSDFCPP
# Sequence of CDK5/p35 (Q15078 whole entry partner): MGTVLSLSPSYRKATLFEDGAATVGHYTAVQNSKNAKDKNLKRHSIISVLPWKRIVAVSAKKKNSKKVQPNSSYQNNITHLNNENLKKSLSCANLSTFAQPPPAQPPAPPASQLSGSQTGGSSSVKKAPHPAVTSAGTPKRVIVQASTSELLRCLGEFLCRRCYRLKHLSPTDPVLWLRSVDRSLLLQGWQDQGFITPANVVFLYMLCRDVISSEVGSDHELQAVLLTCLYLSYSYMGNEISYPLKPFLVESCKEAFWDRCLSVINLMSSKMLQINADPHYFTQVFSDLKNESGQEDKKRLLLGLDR
# Sequence of CDK1/cyclinB (P06493 whole entry): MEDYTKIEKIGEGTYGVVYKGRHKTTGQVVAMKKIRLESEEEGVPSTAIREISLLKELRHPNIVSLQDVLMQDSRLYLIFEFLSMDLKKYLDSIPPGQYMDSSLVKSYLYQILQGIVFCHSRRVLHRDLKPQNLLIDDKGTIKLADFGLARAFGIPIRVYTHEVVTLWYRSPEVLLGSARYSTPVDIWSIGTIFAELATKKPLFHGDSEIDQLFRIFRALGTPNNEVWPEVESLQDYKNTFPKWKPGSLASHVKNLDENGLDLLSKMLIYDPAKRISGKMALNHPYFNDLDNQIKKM
# Sequence of CDK1/cyclinB (P14635 whole entry partner): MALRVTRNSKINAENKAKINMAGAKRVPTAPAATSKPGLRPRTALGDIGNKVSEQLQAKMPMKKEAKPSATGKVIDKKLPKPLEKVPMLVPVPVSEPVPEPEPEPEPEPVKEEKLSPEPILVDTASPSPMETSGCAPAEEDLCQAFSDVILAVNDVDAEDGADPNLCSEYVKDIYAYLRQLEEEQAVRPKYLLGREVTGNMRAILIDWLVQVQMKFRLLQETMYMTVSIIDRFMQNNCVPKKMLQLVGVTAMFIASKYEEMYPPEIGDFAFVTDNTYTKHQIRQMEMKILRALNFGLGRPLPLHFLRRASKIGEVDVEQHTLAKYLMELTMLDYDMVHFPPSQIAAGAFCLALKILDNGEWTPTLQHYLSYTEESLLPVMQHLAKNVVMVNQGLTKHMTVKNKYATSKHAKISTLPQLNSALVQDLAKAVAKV
smiles,measurement,setting,value
"COc1cc(O)c(CC=C(C)C)c(O)c1C(=O)/C=C/c1ccc(O)cc1 [Xanthohumol, xanthohumol]","Kinase activity, % of Control",CDK1/cyclinB; 1 ug/ml,118 % of Control
same,"Kinase activity, % of Control",CDK1/cyclinB; 5 ug/ml,103 % of Control
same,"Kinase activity, % of Control",CDK1/cyclinB; 25 ug/ml,46 % of Control
same,"Kinase activity, % of Control",CDK1/cyclinB; 50 ug/ml,18 % of Control
same,"Kinase activity, % of Control",Rsk1; 1 ug/ml,34 % of Control
same,"Kinase activity, % of Control",Rsk1; 5 ug/ml,49 % of Control
same,"Kinase activity, % of Control",Rsk1; 25 ug/ml,4 % of Control
same,"Kinase activity, % of Control",Rsk1; 50 ug/ml,0 % of Control
same,"Kinase activity, % of Control",JAK3; 1 ug/ml,104 % of Control
same,"Kinase activity, % of Control",JAK3; 5 ug/ml,84 % of Control
same,"Kinase activity, % of Control",JAK3; 25 ug/ml,17 % of Control
same,"Kinase activity, % of Control",JAK3; 50 ug/ml,5 % of Control
same,"Kinase activity, % of Control",CK1γ3; 1 ug/ml,98 % of Control
same,"Kinase activity, % of Control",CK1γ3; 5 ug/ml,51 % of Control
same,"Kinase activity, % of Control",CK1γ3; 25 ug/ml,22 % of Control
same,"Kinase activity, % of Control",CK1γ3; 50 ug/ml,15 % of Control
same,"Kinase activity, % of Control",CDK5/p35; 1 ug/ml,103 % of Control
same,"Kinase activity, % of Control",CDK5/p35; 5 ug/ml,102 % of Control
same,"Kinase activity, % of Control",CDK5/p35; 25 ug/ml,41 % of Control
same,"Kinase activity, % of Control",CDK5/p35; 50 ug/ml,44 % of Control
same,"Kinase activity, % of Control",EphA8; 1 ug/ml,103 % of Control
same,"Kinase activity, % of Control",EphA8; 5 ug/ml,92 % of Control
same,"Kinase activity, % of Control",EphA8; 25 ug/ml,29 % of Control
same,"Kinase activity, % of Control",EphA8; 50 ug/ml,19 % of Control
same,"Kinase activity, % of Control",cKit(D816H); 1 ug/ml,94 % of Control
same,"Kinase activity, % of Control",cKit(D816H); 5 ug/ml,45 % of Control
same,"Kinase activity, % of Control",cKit(D816H); 25 ug/ml,14 % of Control
same,"Kinase activity, % of Control",Pim-2; 1 ug/ml,104 % of Control
same,"Kinase activity, % of Control",Pim-2; 5 ug/ml,48 % of Control
same,"Kinase activity, % of Control",Pim-2; 25 ug/ml,14 % of Control
same,"Kinase activity, % of Control",Pim-2; 50 ug/ml,6 % of Control
same,"Kinase activity, % of Control",MAPKAP-K2; 1 ug/ml,99 % of Control
same,"Kinase activity, % of Control",MAPKAP-K2; 5 ug/ml,95 % of Control
same,"Kinase activity, % of Control",MAPKAP-K2; 25 ug/ml,6 % of Control
same,"Kinase activity, % of Control",MAPKAP-K2; 50 ug/ml,8 % of Control
